# Results taken from patent US20260083131A1, “AN HERBICIDAL COMBINATION, COMPOSITION AND METHOD OF CONTROLLING WEEDS USING THE SAME” (priority 2022, published 2026).
# Legend:
# Borreria verticillata = test: Greenhouse trial, post-emergence herbicidal activity on Borreria verticillata; type: in vivo
# Description: (§1) The expected efficacy of a combination of L-glufosinate ammonium and the other herbicides was calculated using the well-established Colby method. Any difference between the observed and “expected” efficacy could be attributed to synergy between the two compounds.
# (§2) In the Colby method, the expected (or predicted) response of a combination of herbicides is calculated by taking the product of the observed response for each individual component of the combination when applied alone, divided by 100, and subtracting this value from the sum of the observed response for each component when applied alone. An unexpected enhancement in efficacy of the combination is then determined by comparing the observed response of the combination to the expected (or predicted) response as calculated from the observed response of each individual component alone. If the observed response of the combination is greater than the expected (or predicted) response, or stated conversely, if the difference between the observed and expected response is greater than zero, then the combination is said to be synergistic or unexpectedly effective (Colby, S. R., Weeds, 1967(15), p. 20-22). The Colby method requires only a single dose of each herbicide applied alone and the mixture of both doses. The formula used to calculate the expected efficacy (EE) which was compared with the observed efficacy (OE) to determine the efficacy of the present disclosure is explained hereinbelow:
# (§3) Methodology: Greenhouse trials were conducted to evaluate the efficacy of the combination comprising L-glufosinate ammonium and imidazolinone herbicides—imazethapyr, imazamox, imazapic and imazapic+imazapyr—on weeds Borreria verticilata, Eleusine indica, Brachiaria decumbens, Spermacoce latifolia and Glycine max.
# (§4) The soil used was sandy clay loam—sand: 68.0%; silt: 8.0%; clay: 24.0%.
# (§5) All treatments were in 3 replications per treatment with a spray volume of about 150 L/ha.
# The percentage efficacy was calculated after 3, 7, 14, 21, 28 and 35 days of applications (DAA). The target weed was Borreria verticillata, and the concentration of the herbicide and the results are recorded in Table 1.
# The percentage efficacy was calculated after 3 days of applications (DAA). The target weed was Borreria verticillata, and the concentration of the herbicide and the results are recorded in Table 2.
# The percentage efficacy was calculated after 3, 7, 14, 21, 28 and 35 days of applications (DAA). The target weed was Borreria verticillata, and the concentration of the herbicide and the results are recorded Table 7.
# [1] = tested on: weedy Brachiaria decumbens; test: Greenhouse trial, post-emergence herbicidal activity on Brachiaria decumbens; type: in vivo; settings: Table 3
# Description: as §1, §2, §3, §4, §5
# The percentage efficacy was calculated after 7, 14, 21, 28, 35 days of applications (DAA). The target weed was weedy Brachiaria decumbens, and the concentration of the herbicide and the results are recorded in Table 3.
# weedy Eleusine indica = test: Greenhouse trial, post-emergence herbicidal activity on Eleusine indica; type: in vivo; settings: Table 4
# Description: as §1, §2, §3, §4, §5
# The percentage efficacy was calculated after 7, 14, 21, 28, 35 days of applications (DAA). The target weed was weedy Eleusine indica, and the concentration of the herbicide and the results are recorded in Table 4.
# Spermacoce latifolia = test: Greenhouse trial, post-emergence herbicidal activity on Spermacoce latifolia; type: in vivo; settings: Table 5
# Description: as §1, §2, §3, §4, §5
# The percentage efficacy was calculated after 14, 21, 28, 35 days of applications (DAA). The target weed was Spermacoce latifolia, and the concentration of the herbicide and the results are recorded Table 5.
# weedy Glycine max = test: Greenhouse trial, post-emergence herbicidal activity on Glycine max; type: in vivo; settings: Table 6
# Description: as §1, §2, §3, §4, §5
# The percentage efficacy was calculated after 14, 21, 28, 35 days of applications (DAA). The target weed was weedy Glycine max, and the concentration of the herbicide and the results are recorded in Table 6.
# [2] = tested on: Viola arvensis, Bromus spp., Lolium spp., Agropyron repens and Urtica urens; settings: reported by Hoechst et al., 1991; cited from earlier work
smiles,measurement,setting,value
"CP(=O)(O)CC[C@H](N)C(=O)O.N [L-glufosinate ammonium, ammonium (2S)-2-amino-4-(methylphosphinato)butyric acid]",Observed efficacy (%) of L-glufosinate ammonium (Glufosinate-P-ammonium) (150 g a.i./ha),"Borreria verticillata; 3 DAA, Table 1",50%
same,Observed efficacy (%) of L-glufosinate ammonium (Glufosinate-P-ammonium) (150 g a.i./ha),"Borreria verticillata; 3 DAA, Table 2",55%
same,Observed efficacy (%) of L-glufosinate ammonium (Glufosinate-P-ammonium) (150 g a.i./ha),"Borreria verticillata; 3 DAA, Table 7",50%
same,Observed efficacy (%) of L-glufosinate ammonium (Glufosinate-P-ammonium) (150 g a.i./ha),"Borreria verticillata; 7 DAA, Table 1",80%
same,Observed efficacy (%) of L-glufosinate ammonium (Glufosinate-P-ammonium) (150 g a.i./ha),"Borreria verticillata; 7 DAA, Table 7",80%
same,Observed efficacy (%) of L-glufosinate ammonium (Glufosinate-P-ammonium) (150 g a.i./ha),"Borreria verticillata; 14 DAA, Table 1",95%
same,Observed efficacy (%) of L-glufosinate ammonium (Glufosinate-P-ammonium) (150 g a.i./ha),"Borreria verticillata; 14 DAA, Table 7",95%
same,Observed efficacy (%) of L-glufosinate ammonium (Glufosinate-P-ammonium) (150 g a.i./ha),"Borreria verticillata; 21 DAA, Table 1",90%
same,Observed efficacy (%) of L-glufosinate ammonium (Glufosinate-P-ammonium) (150 g a.i./ha),"Borreria verticillata; 21 DAA, Table 7",90%
same,Observed efficacy (%) of L-glufosinate ammonium (Glufosinate-P-ammonium) (150 g a.i./ha),"Borreria verticillata; 28 DAA, Table 1",90%
same,Observed efficacy (%) of L-glufosinate ammonium (Glufosinate-P-ammonium) (150 g a.i./ha),"Borreria verticillata; 28 DAA, Table 7",90%
same,Observed efficacy (%) of L-glufosinate ammonium (Glufosinate-P-ammonium) (150 g a.i./ha),"Borreria verticillata; 35 DAA, Table 1",85%
same,Observed efficacy (%) of L-glufosinate ammonium (Glufosinate-P-ammonium) (150 g a.i./ha),"Borreria verticillata; 35 DAA, Table 7",85%
same,"Observed efficacy (%) of L-glufosinate ammonium, (150 g a.i./ha)",[1]; 7 DAA,46%
same,"Observed efficacy (%) of L-glufosinate ammonium, (150 g a.i./ha)",[1]; 14 DAA,54.3%
same,"Observed efficacy (%) of L-glufosinate ammonium, (150 g a.i./ha)",[1]; 21 DAA,53.3%
same,"Observed efficacy (%) of L-glufosinate ammonium, (150 g a.i./ha)",[1]; 28 DAA,48.3%
same,"Observed efficacy (%) of L-glufosinate ammonium, (150 g a.i./ha)",[1]; 35 DAA,42%
same,"Observed efficacy (%) of L-glufosinate ammonium, (150 g a.i./ha)",weedy Eleusine indica; 7 DAA,43.3%
same,"Observed efficacy (%) of L-glufosinate ammonium, (150 g a.i./ha)",weedy Eleusine indica; 14 DAA,41.3%
same,"Observed efficacy (%) of L-glufosinate ammonium, (150 g a.i./ha)",weedy Eleusine indica; 21 DAA,37.3%
same,"Observed efficacy (%) of L-glufosinate ammonium, (150 g a.i./ha)",weedy Eleusine indica; 28 DAA,28.3%
same,"Observed efficacy (%) of L-glufosinate ammonium, (150 g a.i./ha)",weedy Eleusine indica; 35 DAA,25.3%
same,"Observed efficacy (%) of L-glufosinate ammonium, (150 g a.i./ha)",Spermacoce latifolia; 14 DAA,56.7%
same,"Observed efficacy (%) of L-glufosinate ammonium, (150 g a.i./ha)",Spermacoce latifolia; 21 DAA,56.7%
same,"Observed efficacy (%) of L-glufosinate ammonium, (150 g a.i./ha)",Spermacoce latifolia; 28 DAA,58.3%
same,"Observed efficacy (%) of L-glufosinate ammonium, (150 g a.i./ha)",Spermacoce latifolia; 35 DAA,58.3%
same,"Observed efficacy (%) of L-glufosinate ammonium, (150 g a.i./ha)",weedy Glycine max; 14 DAA,60%
same,"Observed efficacy (%) of L-glufosinate ammonium, (150 g a.i./ha)",weedy Glycine max; 21 DAA,63.3%
same,"Observed efficacy (%) of L-glufosinate ammonium, (150 g a.i./ha)",weedy Glycine max; 28 DAA,63.3%
same,"Observed efficacy (%) of L-glufosinate ammonium, (150 g a.i./ha)",weedy Glycine max; 35 DAA,52.7%
"COCc1cnc(C2=NC(C)(C(C)C)C(=O)N2)c(C(=O)O)c1 (stereo not drawn) [Imazamox, imazamox]",Observed efficacy (%) of Imazamox (21 g a.i./ha),"Borreria verticillata; 3 DAA, 21 g a.i./ha, Table 2",10%
"CCc1cnc(C2=NC(C)(C(C)C)C(=O)N2)c(C(=O)O)c1 (stereo not drawn) [Imazethapyr, imazethapyr]","Observed efficacy (%) of Imazethapyr, (75 g a.i./ha)",[1]; 7 DAA,10%
same,"Observed efficacy (%) of Imazethapyr, (75 g a.i./ha)",[1]; 14 DAA,10%
same,"Observed efficacy (%) of Imazethapyr, (75 g a.i./ha)",[1]; 21 DAA,15%
same,"Observed efficacy (%) of Imazethapyr, (75 g a.i./ha)",[1]; 28 DAA,10%
same,"Observed efficacy (%) of Imazethapyr, (75 g a.i./ha)",[1]; 35 DAA,5%
same,"Observed efficacy (%) of Imazethapyr, (75 g a.i./ha)",weedy Eleusine indica; 7 DAA,8.3%
same,"Observed efficacy (%) of Imazethapyr, (75 g a.i./ha)",weedy Eleusine indica; 14 DAA,12%
same,"Observed efficacy (%) of Imazethapyr, (75 g a.i./ha)",weedy Eleusine indica; 21 DAA,12.7%
same,"Observed efficacy (%) of Imazethapyr, (75 g a.i./ha)",weedy Eleusine indica; 28 DAA,12.7%
same,"Observed efficacy (%) of Imazethapyr, (75 g a.i./ha)",weedy Eleusine indica; 35 DAA,10%
same,"Observed efficacy (%) of Imazethapyr, (75 g a.i./ha)",Spermacoce latifolia; 14 DAA,30%
same,"Observed efficacy (%) of Imazethapyr, (75 g a.i./ha)",Spermacoce latifolia; 21 DAA,36.7%
same,"Observed efficacy (%) of Imazethapyr, (75 g a.i./ha)",Spermacoce latifolia; 28 DAA,30%
same,"Observed efficacy (%) of Imazethapyr, (75 g a.i./ha)",Spermacoce latifolia; 35 DAA,26.7%
same,"Observed efficacy (%) of Imazethapyr, (75 g a.i./ha)",weedy Glycine max; 14 DAA,10%
same,"Observed efficacy (%) of Imazethapyr, (75 g a.i./ha)",weedy Glycine max; 21 DAA,20%
same,"Observed efficacy (%) of Imazethapyr, (75 g a.i./ha)",weedy Glycine max; 28 DAA,20%
same,"Observed efficacy (%) of Imazethapyr, (75 g a.i./ha)",weedy Glycine max; 35 DAA,15%
"CP(=O)(O)CCC(N)C(=O)O (racemic) [glufosinate, DL-homoalanin-4-yl(methyl)phosphinic acid]","control of weed species Viola arvensis, Bromus spp., Lolium spp., Agropyron repens and Urtica urens",[2],"either not combated, or only weakly combated"
"Cc1cnc(C2=NC(=O)C(C)(C(C)C)N2)c(C(=O)O)c1 (stereo not drawn) [Imazapic, imazapic]",Observed efficacy (%) of Imazapic (59 g a.i./ha),"Borreria verticillata; 3 DAA, Table 1",10%
same,Observed efficacy (%) of Imazapic (59 g a.i./ha),"Borreria verticillata; 7 DAA, Table 1",20%
same,Observed efficacy (%) of Imazapic (59 g a.i./ha),"Borreria verticillata; 14 DAA, Table 1",35%
same,Observed efficacy (%) of Imazapic (59 g a.i./ha),"Borreria verticillata; 21 DAA, Table 1",30%
same,Observed efficacy (%) of Imazapic (59 g a.i./ha),"Borreria verticillata; 28 DAA, Table 1",40%
same,Observed efficacy (%) of Imazapic (59 g a.i./ha),"Borreria verticillata; 35 DAA, Table 1",60%
